# US20240066136A1, “MODIFIED PROTEINS AND PROTEIN DEGRADERS” (Cullgen (Shanghai), Inc., priority 2020, published 2024)
# Like-named read-outs stand apart in the source and are kept apart here.
# Target: Human DDB1 (Homo sapiens (Human), UniProt Q16531)
# Assay: Surface plasmon resonance (SPR) binding assay to immobilized His-DDB1
# Details: SPR
# Procedure: The binding affinities of heterobifunctional compounds to DDB1 were determined by SPR assay. Purified His-DDB1 proteins were immobilized on a CM5 sensor chip, and a dose range of compound solutions were injected in multi-cycle kinetic format. Data were fit to steady state model and gave equivalent dissociation constants (KD).
# Protein Expression and Purification. Human DDB1 (UniPro: Q16531) coding sequences were cloned into pFastBacHTB vector and were expressed in High5 cells using Bac-to-Bac baculovirus expression system (Thermo Fisher Scientific). […] DDB1 proteins were obtained from supernatant of cell lysates and purified through sequential application of Ni affinity (Ni-NTA column. Bio-Rad), and size-exclusion (Superdex 200 16/600GL column, GE Healthcare) column chromatography.
# Surface plasmon resonance (SPR) binding assay. All SPR studies were performed on a Biacore X100 plus or T200 instrument (GE Healthcare). Immobilization of purified His-DDB1 was carried out at 25° C. using a CM5 sensor chip. The surface was pre-equilibrated in HBS-EP running buffer (10 mM HEPES, pH7.4, 150 mM NaCl, 3 mM EDTA, 0.05% P20), then activated with EDC/NHS. His-DDB1 proteins were immobilized by amine coupling to a density of 11,000-13,000 resonance units (RUs) on flow cell FC2, whereas flow cell FC1 was used as reference. Both DDB1 immobilized and reference surfaces were deactivated with 1M ethanolamine.
# All interaction experiments were performed at 25° C. […] Compound Solutions were injected individually in multi-cycle kinetic format without regeneration (flow rate […], association time 120 s, dissociation time 120 s). Sensorgrams from reference surfaces and blank injections were subtracted from the raw data (double-referencing) and the data was solvent-corrected prior to analysis. All data were fit to steady state affinity model using Biacore Evaluation Software and gave equivalent dissociation constants (KD).
# [1] = steady state affinity model, 25° C., read-out: Binding (DDB1 binder activities, Kd)
# [2] = DDB1 binding moieties with linkers and/or target protein binding moiety, read-out: Binding (Kd)
# Chain of Human DDB1 (Q16531 whole entry): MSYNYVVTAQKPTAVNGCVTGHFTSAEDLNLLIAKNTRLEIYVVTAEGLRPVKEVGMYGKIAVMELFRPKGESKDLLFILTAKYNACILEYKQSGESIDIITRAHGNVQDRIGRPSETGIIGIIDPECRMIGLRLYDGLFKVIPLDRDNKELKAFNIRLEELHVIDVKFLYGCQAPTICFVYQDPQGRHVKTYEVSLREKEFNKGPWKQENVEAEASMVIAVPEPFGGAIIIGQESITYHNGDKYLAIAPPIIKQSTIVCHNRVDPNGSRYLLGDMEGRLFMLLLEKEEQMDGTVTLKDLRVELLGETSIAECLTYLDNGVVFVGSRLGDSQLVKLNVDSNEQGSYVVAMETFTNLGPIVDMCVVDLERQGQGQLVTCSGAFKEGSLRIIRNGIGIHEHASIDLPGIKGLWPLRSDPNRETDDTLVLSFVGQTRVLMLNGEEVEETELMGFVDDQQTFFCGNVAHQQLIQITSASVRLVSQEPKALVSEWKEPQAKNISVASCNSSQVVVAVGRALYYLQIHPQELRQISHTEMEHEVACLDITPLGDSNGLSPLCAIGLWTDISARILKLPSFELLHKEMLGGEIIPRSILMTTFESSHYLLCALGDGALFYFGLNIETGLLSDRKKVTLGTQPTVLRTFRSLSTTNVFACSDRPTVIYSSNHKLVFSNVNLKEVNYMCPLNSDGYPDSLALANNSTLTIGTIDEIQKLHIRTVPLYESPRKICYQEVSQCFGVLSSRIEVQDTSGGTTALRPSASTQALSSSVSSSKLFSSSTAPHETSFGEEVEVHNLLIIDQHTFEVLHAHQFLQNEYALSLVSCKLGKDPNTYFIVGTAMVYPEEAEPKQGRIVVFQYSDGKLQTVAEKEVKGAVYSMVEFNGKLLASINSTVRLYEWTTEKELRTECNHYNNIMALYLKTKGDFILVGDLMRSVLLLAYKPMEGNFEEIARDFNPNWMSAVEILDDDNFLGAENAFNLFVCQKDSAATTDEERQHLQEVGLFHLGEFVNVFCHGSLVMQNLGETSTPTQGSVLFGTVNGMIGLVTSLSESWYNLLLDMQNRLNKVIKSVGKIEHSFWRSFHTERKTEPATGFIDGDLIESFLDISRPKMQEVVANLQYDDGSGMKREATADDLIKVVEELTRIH
Molecule,Kd [1] [µM],Kd [2] [µM]
"CC(=O)Nc1cc(NCCOCCOCCOCCNC(=O)CN2CCN(c3ccc(Nc4ncc5c(C)c(C(C)=O)c(=O)n(C6CCCC6)c5n4)nc3)CC2)ccc1C(=O)Nc1nc(C)c([N+](=O)[O-])s1 [D-46, 2-Acetamido-4-((1-(4-(6-((6-acetyl-8-cyclopentyl-5-methyl-7-oxo-7,8-dihydropyrido[2,3-d]pyrimidin-2-yl)amino)pyridin-3-yl)piperazin-1-yl)-2-oxo-6,9,12-trioxa-3-azatetradecan-14-yl)amino)-N-(4-methyl-5-nitrothiazol-2-yl)benzamide]",–,< 20
"O=C(Nc1ncc([N+](=O)[O-])s1)c1ccccc1 [B-3, N-(5-Nitrothiazol-2-yl)benzamide]",20 to 100,–
"CC(=O)Nc1cc(NCCCCN)ccc1C(=O)Nc1ccc([N+](=O)[O-])s1 [BL-20, 2-Acetamido-4-((4-aminobutyl)amino)-N-(5-nitrothiophen-2-yl)benzamide]",–,20 to 100
"O=C(Nc1ncc([N+](=O)[O-])s1)c1ccccc1OC(F)(F)F [B-77, N-(5-nitrothiazol-2-yl)-2-(trifluoromethoxy)benzamide]",> 100,–
"COc1ccccc1C(=O)Nc1ncc([N+](=O)[O-])s1 [B-73, 2-methoxy-N-(5-nitrothiazol-2-yl)benzamide]",> 100,–
"CCNc1cccc(OCC)c1C(=O)Nc1ncc([N+](=O)[O-])s1 [B-168, 2-Ethoxy-6-(ethylamino)-N-(5-nitrothiazol-2-yl)benzamide]",> 100,–
"CCCCNc1ccc(C(=O)Nc2nc(C)c([N+](=O)[O-])s2)c(-c2ccccc2)c1 [B-111, 5-(Butylamino)-N-(4-methyl-5-nitrothiazol-2-yl)-[1,1′-biphenyl]-2-carboxamide]",20 to 100,–
"Cc1cccc(C)c1C(=O)Nc1ncc([N+](=O)[O-])s1 [B-157, 2,6-Dimethyl-N-(5-nitrothiazol-2-yl)benzamide]",> 100,–
"CCCCNc1ccc(C(=O)Nc2ncc([N+](=O)[O-])s2)c(OC(C)=O)c1 [B-17, 5-(Butylamino)-2-((5-nitrothiazol-2-yl)carbamoyl)phenyl acetate]",< 20,–
"CC(=O)Nc1ccccc1C(=O)Nc1nc(S(C)(=O)=O)cs1 [B-48, 2-Acetamido-N-(4-(methylsulfonyl)thiazol-2-yl)benzamide]",> 100,–
2-Acetamido-3-butyramido-N-(5-nitrothiazol-2-yl)benzamide [B-146],20 to 100,–
"CCCCNc1ccc(C(=O)Nc2ncc([N+](=O)[O-])s2)c(Nc2ccccc2)c1 [B-108, 4-(Butylamino)-N-(5-nitrothiazol-2-yl)-2-(phenylamino)benzamide]",20 to 100,–
"Cc1cc(N2CCOCC2)ccc1C(=O)Nc1ncc([N+](=O)[O-])s1 [B-162, 2-Methyl-4-morpholino-N-(5-nitrothiazol-2-yl)benzamide]",> 100,–
"CC(=O)Oc1ccccc1C(=O)N(C)c1ncc([N+](=O)[O-])s1 [B-8, 2-(Methyl(5-nitrothiazol-2-yl)carbamoyl)phenyl acetate]",< 20,–
"CCCCNc1ccc(NC(C)=O)c(C(=O)Nc2ncc([N+](=O)[O-])s2)c1 [B-149, 2-Acetamido-5-(butylamino)-N-(5-nitrothiazol-2-yl)benzamide]",20 to 100,–
"CCOc1cc(NC2CCOCC2)ccc1C(=O)Nc1ncc([N+](=O)[O-])s1 [B-98, 2-Ethoxy-N-(5-nitrothiazol-2-yl)-4-((tetrahydro-2H-pyran-4-yl)amino)benzamide]",20 to 100,–
"CC(=O)Nc1ccccc1C(=O)Nc1ncc(Br)s1 [B-37, 2-Acetamido-N-(5-bromothiazol-2-yl)benzamide]",> 100,–
"CC(=O)Nc1ccccc1C(=O)Nc1ccc(-c2ccccc2)s1 [B-130, 2-Acetamido-N-(5-phenylthiophen-2-yl)benzamide]",> 100,–
"O=C1CCCCCN1c1ncc([N+](=O)[O-])s1 [B-100, 1-(5-Nitrothiazol-2-yl)azepan-2-one]",20 to 100,–
"CCCCNc1ccc(OC(C)=O)c(C(=O)Nc2ncc([N+](=O)[O-])s2)c1 [B-18, 4-(butylamino)-2-((5-nitrothiazol-2-yl)carbamoyl)phenylacetate]",20 to 100,–
"CC(=O)Nc1ccccc1C(=O)Nc1ncc([N+](=O)[O-])s1 [B-4, 2-Acetamido-N-(5-nitrothiazol-2-yl)benzamide]",< 20,–
"CC(=O)Nc1cc(NCCOCCOCCOCCOCCOCCOCCNC(=O)C[C@@H]2N=C(c3ccc(Cl)cc3)c3c(sc(C)c3C)-n3c(C)nnc32)ccc1C(=O)Nc1nc(C)c([N+](=O)[O-])s1 [D-37, (S)-2-Acetamido-4-((1-(4-(4-chlorophenyl)-2,3,9-trimethyl-6H-thieno[3,2-f][1,2,4]triazolo[4,3-a][1,4]diazepin-6-yl)-2-oxo-6,9,12,15,18,21-hexaoxa-3-azatricosan-23-yl)amino)-N-(4-methyl-5-nitrothiazol-2-yl)benzamide]",–,20 to 100
"NCCOCCOCCOCCC(=O)Nc1ccccc1C(=O)Nc1ncc([N+](=O)[O-])s1 [BL-3, 2-(3-(2-(2-(2-Aminoethoxy)ethoxy)ethoxy)propanamido)-N-(5-nitrothiazol-2-yl)benzamide]",–,20 to 100

# More lines, now with the values ahead:
Kd [1] [µM],Kd [2] [µM],Molecule
20 to 100,–,"CCCC(=O)Nc1cccc(OC(=O)CCC)c1C(=O)Nc1ncc([N+](=O)[O-])s1 [B-25, 3-Butyramido-2-((5-nitrothiazol-2-yl)carbamoyl)phenyl butyrate]"
20 to 100,–,"CN(C)S(=O)(=O)c1ccccc1C(=O)Nc1ncc([N+](=O)[O-])s1 [B-82, 2-(N,N-dimethylsulfamoyl)-N-(5-nitrothiazol-2-yl)benzamide]"
20 to 100,–,"c1ncc(Nc2nccc(C3CCCCN3)n2)cn1 (centres unmarked) [B-137, 4-(piperidin-2-yl)-N-(pyrimidin-5-yl)pyrimidin-2-amine]"
20 to 100,–,"CCc1nnc(CNC(=O)c2ccccc2C2CCNC2)s1 (centres unmarked) [B-141, N-((5-ethyl-1,3,4-thiadiazol-2-yl)methyl)-2-(pyrrolidin-3-yl)benzamide]"
20 to 100,–,"CS(=O)(=O)Nc1ccccc1C(=O)Nc1ncc([N+](=O)[O-])s1 [B-67, 2-(methylsulfonamido)-N-(5-nitrothiazol-2-yl)benzamide]"
20 to 100,–,"CC(=O)Oc1cc(NC2CCOCC2)ccc1C(=O)Nc1ncc([N+](=O)[O-])s1 [B-96, 2-((5-Nitrothiazol-2-yl)carbamoyl)-5-((tetrahydro-2H-pyran-4-yl)amino)phenyl acetate]"
–,20 to 100,"CC(=O)Nc1cc(NCCNC(=O)C[C@@H]2N=C(c3ccc(Cl)cc3)c3c(sc(C)c3C)-n3c(C)nnc32)ccc1C(=O)Nc1nc(C)c([N+](=O)[O-])s1 [D-26, (S)-2-Acetamido-4-((2-(2-(4-(4-chlorophenyl)-2,3,9-trimethyl-6H-thieno[3,2-f][1,2,4]triazolo[4,3-a][1,4]diazepin-6-yl)acetamido)ethyl)amino)-N-(4-methyl-5-nitrothiazol-2-yl)benzamide]"
< 20,–,"Cc1ccccc1C(=O)Nc1nccs1 [B-176, 2-Methyl-N-(thiazol-2-yl)benzamide]"
20 to 100,–,"CCCCNc1ccc(C(=O)Nc2ncc([N+](=O)[O-])s2)c(C(C)C)c1 [B-109, 4-(Butylamino)-2-isopropyl-N-(5-nitrothiazol-2-yl)benzamide]"
20 to 100,–,"NS(=O)(=O)c1ccccc1C(=O)Nc1ncc([N+](=O)[O-])s1 [B-80, N-(5-Nitrothiazol-2-yl)-2-sulfamoylbenzamide]"
> 100,–,"CCCCNc1ccc(C(=O)Nc2ccc([N+](=O)[O-])s2)c(C(C)C)c1 [B-134, 4-(Butylamino)-2-isopropyl-N-(5-nitrothiophen-2-yl)benzamide]"
20 to 100,–,"CNC(=O)CCCNC(=O)c1nnn2c1CN(C(=O)OCCCCCC(C)C)CC2 [B-144, 6-methylheptyl3-((4-(methylamino)-4-oxobutyl)carbamoyl)-6,7-dihydro-[1,2,3]triazolo[1,5-a]pyrazine-5(4H)-carboxylate]"
20 to 100,–,"CC(=O)Nc1ccccc1C(=O)Nc1ncc(C#N)s1 [B-39, 2-acetamido-N-(5-cyanothiazol-2-yl)benzamide]"
20 to 100,–,"CCCCNc1ccc(C(=O)Nc2ncc(C(F)(F)F)s2)c(-c2ccccc2)c1 [B-118, 5-(Butylamino)-N-(5-(trifluoromethyl)thiazol-2-yl)-[1,1′-biphenyl]-2-carboxamide]"
20 to 100,–,"CC(=O)Nc1ccccc1C(=O)Nc1nc(C(F)(F)F)c([N+](=O)[O-])s1 [B-31, 2-Acetamido-N-(5-nitro-4-(trifluoromethyl)thiazol-2-yl)benzamide]"
< 20,–,"CCCCNc1ccc(C(=O)Nc2nc(-c3ccccc3)c([N+](=O)[O-])s2)c(-c2ccccc2)c1 [B-131, 5-(Butylamino)-N-(5-nitro-4-phenylthiazol-2-yl)-[1,1′-biphenyl]-2-carboxamide]"
20 to 100,–,"O=C1CCCCCCN1c1ncc([N+](=O)[O-])s1 [B-101, 1-(5-Nitrothiazol-2-yl)azocan-2-one]"
20 to 100,–,"CC(=O)Nc1ccccc1C(=O)Nc1ncc(C)s1 [B-42, 2-Acetamido-N-(5-methylthiazol-2-yl)benzamide]"
